Where “and” joins values, the source holds several entries; their conditions need not be identical. Equal entries are not always repeated.
Tests used:
[1] = tested on: MCF7; assay: Growth inhibition of human MCF7 cells assessed as growth percentage at 10 uM incubated for 48 hrs by sulforhodamine B assay relative to control; type: functional; settings: read-out: Activity
[2] = tested on: OVCAR-4; assay: Growth inhibition of human OVCAR-4 cells assessed as growth percentage at 10 uM incubated for 48 hrs by sulforhodamine B assay relative to control; type: functional; settings: read-out: Activity
[3] = tested on: U-251; assay: Growth inhibition of human U-251 cells assessed as growth percentage at 10 uM incubated for 48 hrs by sulforhodamine B assay relative to control; type: functional; settings: read-out: Activity
[4] = tested on: HT-29; assay: Growth inhibition of human HT-29 cells assessed as growth percentage at 10 uM incubated for 48 hrs by sulforhodamine B assay relative to control; type: functional; settings: read-out: Activity
[5] = tested on: HOP-62; assay: Growth inhibition of human HOP-62 cells assessed as growth percentage at 10 uM incubated for 48 hrs by sulforhodamine B assay relative to control; type: functional; settings: read-out: Activity
[6] = tested on: HL-60(TB); assay: Growth inhibition of human HL-60(TB) cells assessed as growth percentage at 10 uM incubated for 48 hrs by sulforhodamine B assay relative to control; type: functional; settings: read-out: Activity
[7] = target: Fibroblast growth factor receptor 2 (Homo sapiens) (UniProt P21802); assay: Inhibition of human FGFR2 at 10 uM using myelin basic protein as substrate incubated for 40 mins in presence of [gamma33P]ATP by scintillation counting method relative to control
[8] = tested on: UACC-62; assay: Growth inhibition of human UACC-62 cells incubated for 48 hrs by sulforhodamine B assay; type: functional; settings: Homo sapiens, UACC-62, 48 h
[9] = tested on: SK-MEL-28; assay: Growth inhibition of human SK-MEL-28 cells incubated for 48 hrs by sulforhodamine B assay; type: functional
[10] = tested on: M14; assay: Growth inhibition of human M14 cells incubated for 48 hrs by sulforhodamine B assay; type: functional; settings: Homo sapiens, M14, 48 h
[11] = tested on: SNB-19; assay: Growth inhibition of human SNB-19 cells incubated for 48 hrs by sulforhodamine B assay; type: functional
[12] = tested on: SF-295; assay: Growth inhibition of human SF-295 cells incubated for 48 hrs by sulforhodamine B assay; type: functional
[13] = tested on: HCC 2998; assay: Growth inhibition of human HCC 2998 cells incubated for 48 hrs by sulforhodamine B assay; type: functional; settings: Homo sapiens, HCC 2998, 48 h
[14] = tested on: NCI-H322M; assay: Growth inhibition of human NCI-H322M cells incubated for 48 hrs by sulforhodamine B assay; type: functional; settings: 48 h, read-out: LC50 (the source's name)
[15] = tested on: HOP-62; assay: Growth inhibition of human HOP-62 cells incubated for 48 hrs by sulforhodamine B assay; type: functional
[16] = tested on: HCT-116; assay: Antiproliferative activity against human HCT-116 cells assessed as cell growth inhibition measured after 72 hrs by MTT assay; type: functional
[17] = tested on: DU-145; assay: Growth inhibition of human DU-145 cells assessed as growth percentage at 100 uM incubated for 48 hrs by sulforhodamine B assay relative to control; type: functional; settings: read-out: Activity
[18] = tested on: CAKI-1; assay: Growth inhibition of human CAKI-1 cells assessed as growth percentage at 100 uM incubated for 48 hrs by sulforhodamine B assay relative to control; type: functional; settings: read-out: Activity
[19] = tested on: UACC-257; assay: Growth inhibition of human UACC-257 cells assessed as growth percentage at 100 uM incubated for 48 hrs by sulforhodamine B assay relative to control; type: functional; settings: read-out: Activity
[20] = tested on: Malme-3M; assay: Growth inhibition of human Malme-3M cells assessed as growth percentage at 100 uM incubated for 48 hrs by sulforhodamine B assay relative to control; type: functional; settings: read-out: Activity
[21] = tested on: HT-29; assay: Growth inhibition of human HT-29 cells assessed as growth percentage at 100 uM incubated for 48 hrs by sulforhodamine B assay relative to control; type: functional; settings: read-out: Activity
[22] = tested on: NCI-H23; assay: Growth inhibition of human NCI-H23 cells assessed as growth percentage at 100 uM incubated for 48 hrs by sulforhodamine B assay relative to control; type: functional; settings: read-out: Activity
[23] = tested on: PC-3; assay: Growth inhibition of human PC-3 cells assessed as growth percentage at 1 uM incubated for 48 hrs by sulforhodamine B assay relative to control; type: functional; settings: read-out: Activity
[24] = tested on: UACC-62; assay: Growth inhibition of human UACC-62 cells assessed as growth percentage at 1 uM incubated for 48 hrs by sulforhodamine B assay relative to control; type: functional; settings: read-out: Activity
[25] = tested on: M14; assay: Growth inhibition of human M14 cells assessed as growth percentage at 1 uM incubated for 48 hrs by sulforhodamine B assay relative to control; type: functional; settings: read-out: Activity
[26] = tested on: Malme-3M; assay: Growth inhibition of human Malme-3M cells assessed as growth percentage at 1 uM incubated for 48 hrs by sulforhodamine B assay relative to control; type: functional; settings: read-out: Activity
[27] = tested on: HT-29; assay: Growth inhibition of human HT-29 cells assessed as growth percentage at 1 uM incubated for 48 hrs by sulforhodamine B assay relative to control; type: functional; settings: read-out: Activity
[28] = tested on: OVCAR-8; assay: Growth inhibition of human OVCAR-8 cells assessed as growth percentage at 0.1 uM incubated for 48 hrs by sulforhodamine B assay relative to control; type: functional; settings: read-out: Activity
[29] = tested on: SK-MEL-5; assay: Growth inhibition of human SK-MEL-5 cells assessed as growth percentage at 0.1 uM incubated for 48 hrs by sulforhodamine B assay relative to control; type: functional; settings: read-out: Activity
[30] = tested on: MDA-MB-435; assay: Growth inhibition of human MDA-MB-435 cells assessed as growth percentage at 0.1 uM incubated for 48 hrs by sulforhodamine B assay relative to control; type: functional; settings: read-out: Activity
[31] = tested on: SW-620; assay: Growth inhibition of human SW-620 cells assessed as growth percentage at 0.1 uM incubated for 48 hrs by sulforhodamine B assay relative to control; type: functional; settings: read-out: Activity
[32] = tested on: RPMI-8226; assay: Growth inhibition of human RPMI-8226 cells assessed as growth percentage at 0.1 uM incubated for 48 hrs by sulforhodamine B assay relative to control; type: functional; settings: read-out: Activity
[33] = tested on: MDA-MB-231; assay: Growth inhibition of human MDA-MB-231/ATCC cells assessed as growth percentage at 0.01 uM incubated for 48 hrs by sulforhodamine B assay relative to control; type: functional; settings: read-out: Activity
[34] = tested on: DU-145; assay: Growth inhibition of human DU-145 cells assessed as growth percentage at 0.01 uM incubated for 48 hrs by sulforhodamine B assay relative to control; type: functional; settings: read-out: Activity
[35] = tested on: CAKI-1; assay: Growth inhibition of human CAKI-1 cells assessed as growth percentage at 0.01 uM incubated for 48 hrs by sulforhodamine B assay relative to control; type: functional; settings: read-out: Activity
[36] = tested on: A498; assay: Growth inhibition of human A498 cells assessed as growth percentage at 0.01 uM incubated for 48 hrs by sulforhodamine B assay relative to control; type: functional; settings: read-out: Activity
[37] = tested on: NCI-H23; assay: Growth inhibition of human NCI-H23 cells assessed as growth percentage at 0.01 uM incubated for 48 hrs by sulforhodamine B assay relative to control; type: functional; settings: read-out: Activity
[38] = tested on: K562; assay: Growth inhibition of human K562 cells assessed as growth percentage at 0.01 uM incubated for 48 hrs by sulforhodamine B assay relative to control; type: functional; settings: read-out: Activity

Sequence of Fibroblast growth factor receptor 2 (Homo sapiens) (P21802 22-821 limits assumed): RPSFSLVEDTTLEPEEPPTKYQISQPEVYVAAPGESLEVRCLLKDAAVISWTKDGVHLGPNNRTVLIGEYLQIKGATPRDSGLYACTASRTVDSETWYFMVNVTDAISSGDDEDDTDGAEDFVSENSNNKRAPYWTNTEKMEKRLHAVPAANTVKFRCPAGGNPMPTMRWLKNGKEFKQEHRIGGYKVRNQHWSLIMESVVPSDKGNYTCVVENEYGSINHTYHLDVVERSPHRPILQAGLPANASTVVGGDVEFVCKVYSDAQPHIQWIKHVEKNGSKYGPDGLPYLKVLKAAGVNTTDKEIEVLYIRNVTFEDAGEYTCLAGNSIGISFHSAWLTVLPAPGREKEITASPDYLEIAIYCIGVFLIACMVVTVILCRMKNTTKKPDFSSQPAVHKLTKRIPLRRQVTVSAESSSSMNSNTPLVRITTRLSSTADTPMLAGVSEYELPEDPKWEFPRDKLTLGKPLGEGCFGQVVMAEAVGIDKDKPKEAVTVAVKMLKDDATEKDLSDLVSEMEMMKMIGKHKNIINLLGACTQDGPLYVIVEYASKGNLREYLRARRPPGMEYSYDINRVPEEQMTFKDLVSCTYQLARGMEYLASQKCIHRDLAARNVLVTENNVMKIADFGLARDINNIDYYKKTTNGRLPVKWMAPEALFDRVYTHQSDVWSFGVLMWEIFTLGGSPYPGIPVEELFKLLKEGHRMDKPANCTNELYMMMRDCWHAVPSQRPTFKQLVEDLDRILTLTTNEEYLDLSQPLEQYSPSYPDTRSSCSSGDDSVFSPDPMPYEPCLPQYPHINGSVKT

## Nc1nc2[nH]c(CN3CCN(c4cc(Cl)cc(Cl)c4)CC3)c(CN3CCN(c4cc(Cl)cc(Cl)c4)CC3)c2c(=O)[nH]1
[1]
  growth at 10 µM: 23.4%
[2]
  growth at 10 µM: 65.8%
[3]
  growth at 10 µM: 36.6%
[4]
  growth at 10 µM: 33.4%
[5]
  growth at 10 µM: 84.2%
[6]
  growth at 10 µM: 24.4%
[7]
  inhibition: -0.49%
[8]
  GI50: 1.8 µM
  TGI: 3.42 µM
[9]
  GI50: 1.79 µM
  TGI: 3.62 µM
[10]
  GI50: 1.83 µM
  TGI: 3.63 µM
[11]
  GI50: 1.77 µM
  TGI: 3.67 µM
[12]
  GI50: 1.82 µM
  TGI: 3.9 µM
[13]
  GI50: 1.7 µM
  TGI: 3.16 µM
[14]
  CC50: 73.2 µM and 7.32 µM
[15]
  GI50: 1.67 µM
  TGI: 3.45 µM
[16]
  GI50: 2.89 µM
[17]
  growth at 100 µM: -92%
[18]
  growth at 100 µM: -97%
[19]
  growth at 100 µM: -57%
[20]
  growth at 100 µM: -42%
[21]
  growth at 100 µM: -70%
[22]
  growth at 100 µM: -47%
[23]
  growth at 1 µM: 86%
[24]
  growth at 1 µM: 96%
[25]
  growth at 1 µM: 94%
[26]
  growth at 1 µM: 101%
[27]
  growth at 1 µM: 91%
[28]
  growth at 0.1 µM: 97%
[29]
  growth at 0.1 µM: 98%
[30]
  growth at 0.1 µM: 97%
[31]
  growth at 0.1 µM: 94%
[32]
  growth at 0.1 µM: 102%
[33]
  growth at 0.01 µM: 106%
[34]
  growth at 0.01 µM: 110%
[35]
  growth at 0.01 µM: 87%
[36]
  growth at 0.01 µM: 90%
[37]
  growth at 0.01 µM: 104%
[38]
  growth at 0.01 µM: 108%

Reference: ChEMBL document CHEMBL4673219, “Novel 5,6-disubstituted pyrrolo[2,3-d]pyrimidine derivatives as broad spectrum antiproliferative agents: Synthesis, cell based assays, kinase profile and molecular docking study” (Bioorg Med Chem, 2018)
